The values that follow come from patent publication US20250375417A1, “OREXIN RECEPTOR 2 (OX2R) AGONIST FOR USE IN NARCOLEPSY TYPE 1 (NT1)” (TAKEDA PHARMACEUTICAL COMPANY LIMITED, priority 2024, published 2025).

The structures appear in SMILES notation.

The data set relates to participants with NT2. Nature of the data set: Safety (TEAEs), long-term extension (LTE) study, NT2 participants. Format: in vivo, human. The procedure: Eligible participants were age 18-70 years, with Epworth Sleepiness Scale (ESS) score>12 and no other current EDS-related medical conditions. Participants were randomized 1:1:1 to daily oral Compound A 2 mg twice 3 hours apart, 2 mg then 5 mg 3 hours later, or placebo. Study endpoints included change from baseline to Week 8 in mean Sleep Onset Latency on the Maintenance of Wakefulness Test (mean SOL-MWT; primary endpoint), ESS total score, and incidence of treatment-emergent adverse events (TEAEs). Participants who completed the placebo-controlled study could enroll in a ˜2-year Long Term Extension (LTE) study. LTE TEAE data up to Jan. 25, 2024 are reported.
This was a phase 2/3 multicenter, dose-blind, long-term extension (LTE) study of Compound A. Participants from controlled studies conducted with Compound A, who had up to a 3-month dosing gap between their parent study and the screening period for this study, were eligible to participate in this study.
Day 1 dosing for all participants occurred in-clinic with PK and safety assessments. Participants who were undergoing nocturnal polysomnography (nPSG) and an MWT during the final assessment of their Compound A parent study had the option of staying overnight in the clinic on Day −1 so they were already in the clinic for Day 1 the following day. […]

As for `CCS(=O)(=O)N[C@@H]1[C@H](Cc2cccc(-c3cc(F)cc(F)c3)c2F)N(C(=O)C(C)(C)O)CC1(F)F` [Compound A, N-{(2S,3R)-4,4-difluoro-1-(2-hydroxy-2-methylpropanoyl)-2-[(2,3′,5′-trifluoro[1,1′-biphenyl]-3-yl)methyl]pyrrolidin-3-yl}ethanesulfonamide], the “Participants discontinued due to TEAEs” value was 3. Moreover, the “Participants who experienced TEAEs” value (treated participants (41/57), data up to Jan. 25, 2024) is 71.9%.
